According to US20220193066A1, “QUINOLINE DERIVATIVE USED FOR COMBINATION TREATMENT OF SMALL CELL LUNG CANCER” (CHIA TAI TIANQING PHARMACEUTICAL GROUP CO., LTD., priority 2019, published 2022):

Assays:
Assay type in all cases: in vivo, human
[1] = system: small cell lung cancer (including ED-SCLC and LD-SCLC); test: Clinical trial of EP or EC regimen (etoposide+cisplatin/carboplatin)+anlotinib in small cell lung cancer patients (Example 1)
Excerpt: Patients who were pathologically diagnosed with small cell lung cancer (including ED-SCLC and LD-SCLC) with measurable lesions were divided into the following groups: two combination administration groups adopting a combination of either EP or EC regimen (etoposide+cisplatin/carboplatin)+anlotinib, and a control group adopting either EP or EC alone (etoposide+cisplatin/carboplatin). The administration regimens are detailed below.
In the combination administration group, patients received etoposide: 100 mg/m^2, i.v., for 120 min, administered at d1-3 of each 21-day dosing cycle; cisplatin: 75 mg/m^2, or carboplatin: AUC 5, i.v., for 120 min, administered at d1 of each 21-day dosing cycle; anlotinib, 12 mg/day, administered orally on an empty stomach in the morning at d1-14 of each 21-day dosing cycle. After 4-6 dosing cycles of combination treatment, anlotinib was used for maintenance treatment: 12 mg/day, administered orally on an empty stomach in the morning at d1-14 of each 21-day dosing cycle until progressive disease.
In the control group, patients received etoposide: 100 mg/m^2, i.v., for 120 min, administered at d1-3 of each 21-day dosing cycle; cisplatin: 75 mg/m^2 or carboplatin: AUC 5, i.v., for 120 min, administered at d1 of each 21-day dosing cycle.
The observation indexes are as follows: primary endpoint: progression-free survival (PFS); secondary endpoint: objective response rate (ORR), overall survival (OS), disease control rate (DCR), safety, and tolerability.
The clinical trial was implemented, and 31 patients were enrolled between February 2018 and October 2019.

small cell lung cancer [2] = test: Clinical study of anlotinib in combination with irinotecan in relapsed small cell lung cancer (Example 2); conditions: anlotinib hydrochloride capsule 12 mg qd po d1-14 in combination with irinotecan 60-80 mg/m^2 i.v. d1 and d8, q3w
Excerpt: Patients who have been histopathologically and cytologically diagnosed with small cell lung cancer, have previously received 1 systemic chemotherapy adopting platinum-based chemotherapy regimens, and relapsed or failed after treatment, excluding patients with non-small cell lung cancer (including small cell and non-small cell mixed types), were divided into a combination administration group and a single-drug chemotherapy control group. The administration regimens are detailed below.
Combination administration group: anlotinib hydrochloride capsule 12 mg qd po d1-14 and irinotecan 60-80 mg/m^2 i.v. d1 and d8; q3w, no more than 6 chemotherapy dosing cycles.
Single-drug chemotherapy control group: irinotecan 60-80 mg/m^2 i.v. d1 and d8; q3w, no more than 6 chemotherapy dosing cycles.
Patients who achieved complete response (CR), partial response (PR), and stable disease (SD) continued to be administered until progressive disease (PD), intolerable toxicity, or patients who required withdrawal or achieved progressive disease (PD) were discontinued. The efficacy evaluation observation indexes include progression-free survival (PFS), overall survival (OS), objective response rate (ORR), disease control rate (DCR), duration of response (DOR), quality of life score and drug safety.

[3] = system: extensive-stage small cell lung cancer; test: Clinical study of anlotinib in combination with etoposide in extensive-stage small cell lung cancer after second-line failure (Example 3); conditions: anlotinib hydrochloride capsules 12 mg qd d1-14 in combination with etoposide soft capsules 100 mg qd d1-10, 21-day cycle
Method: Patients with extensive-stage small cell lung cancer after the pathological diagnosis of small cell lung cancer and failure with second-line chemotherapy (having received two previous chemotherapy regimens) were administered with anlotinib in combination with etoposide.
The administration regimens are detailed below.
Etoposide soft capsules: once daily, oral administration before breakfast, 100 mg (by weight of etoposide comprised therein) each time, administered at d1-10 of each 21-day dosing cycle.
Anlotinib hydrochloride capsules: once daily, oral administration before breakfast, 12 mg each time, administered at d1-14 of each 21-day dosing cycle.
The interval between the two drugs was more than half an hour. If there was a missed dose, the interval needed to be confirmed that it was not shorter than 12 hours before the next dose, otherwise no more doses would be taken. During the administration, dosage adjustments could be made according to the degree of drug-related toxicity and possible therapeutic benefit of the patient. The dose could be adjusted to the following 2 levels for anlotinib: 10 mg and 8 mg. If a reduction of more than 2 dose levels was required, the treatment was discontinued. The dose of etoposide could be reduced to 50 mg. […]

small cell lung cancer [4] = test: Clinical study of anlotinib in combination with sintilimab in relapsed small cell lung cancer (Example 5); conditions: anlotinib hydrochloride capsules 12 mg qd d1-14 in combination with sintilimab 200 mg i.v. d1, 21-day cycle
Method: Patients who have been histologically or cytologically confirmed pathologically diagnosed with small cell lung cancer, have previously received at least one systemic chemotherapy regimen and have relapsed were administered with anlotinib in combination with sintilimab. The administration regimens are detailed below.
Anlotinib hydrochloride capsules: once daily, oral administration before breakfast, 12 mg each time, administered at d1-14 of each 21-day dosing cycle, consecutive 2-week treatment and 1-week interruption.
Sintilimab: 200 mg, i.v. infusion, administered d1 of each 21-day dosing cycle.
All patients continued for a treatment period of up to 12 months, or until progressive disease, development of an intolerable toxic response, withdrawal of informed consent, death, or other event requiring discontinuation of treatment specified in the protocol, whichever occurred first.
The efficacy evaluation observation indexes include progression-free survival (PFS), overall survival (OS), objective response rate (ORR=CR+PR), disease control rate (DCR=CR+PR+SD) and drug safety.

[5] = anlotinib 12 mg/day in combination with EP or EC regimen, 31 patients
[6] = anlotinib 12 mg/day in combination with EP or EC regimen, of 31 patients
[7] = combination of anlotinib and EP or EC regimen

## COc1cc2c(Oc3ccc4[nH]c(C)cc4c3F)ccnc2cc1OCC1(N)CC1 [anlotinib, 1-[[[4-(4-fluoro-2-methyl-1H-indol-5-yl)oxy-6-methoxyquinolin-7-yl]oxy]methyl]cyclopropylamine]
[1]; [5]
  disease control rate (DCR): 100%
  objective response rate (ORR): 74.2%
[1]; [6]
  patients with complete response (CR): 3 patients
  patients with partial response (PR): 20 patients
  patients with progressive disease (PD): 0 patients
[1]; anlotinib 12 mg/day po d1-14 q21d in combination with EP or EC regimen (etoposide + cisplatin/carboplatin), then anlotinib maintenance, 31 patients
  median PFS (progression-free survival): 8.9 months
[1]; [7]
  clinical efficacy: good
  safety: good
Small cell lung cancer [2]
  clinical benefits: had clinical benefits
[3]
  clinical benefits: had clinical benefits
Small cell lung cancer [4]
  clinical benefits: had clinical benefits
  progression-free survival to date: up to 6 months
